These results are taken from patent publication US11933781B2, “Fibrosis model and methods of use thereof” (The Regents of the University of Colorado, priority 2020, dated 2024).

Type in all cases: cell-based, human
Experiment [1] deals with IPF HBECs. Nature of the experiment: Induction of the unjammed-to-jammed transition (UJT) in IPF HBECs. Conditions: day 14 IPF HBECs. From the text:
(§1) Epithelial Cell Culture: Primary human bronchial epithelial cells (HBECs) were obtained from two sources (1) provided by Dr. Hong Wei Chu at National Jewish Health, or (2) lung transplant collection at the University of Colorado Hospital (IRB protocol: 11-1664 or 18-0572). Epithelial cells from bronchial brushes or CT-guided dissection were expanded to passage 2 before being cultured at air liquid interface (ALI). Control (N=11), IPF (N=6), and COPD (N=3) were age matched and controls had no history of chronic lung disease (Table 1). Cells were seeded on 24-Transwell plates (Corning, Corning, New York, 3470) coated with type I collagen (Corning, Corning, New York, 354236) and maintained under submerged conditions for five to seven days until the cells reached confluence. Culture media was a 1:1 mixture of DMEM and BEBM (Lonza, Basel, Switzerland, CC170) supplemented with retinoic acid (Sigma-Aldrich, Germany, R-2625) nystatin (Sigma-Aldrich, Germany N1638), and bovine serum albumin (FisherSci, Thermo Fisher Scientific, Waltham, Massachusetts BP9703100). Once confluent, apical media was removed and maintained at ALI. HBECs began recapitulating the in vivo airway, with production of mucus (6-9 days after establishing ALI) and development of a pseudostratified epithelium. Cells were switched to a starvation media (lacking supplemental epidermal growth factor, hydrocortisone, and bovine pituitary extract) 24 hours prior to experimentation.
(§2) For inhibitor, activator, and ligand treatments HBECs were cultured in a starvation media in the absence of EGF, hydrocortisone, and bovine pituitary extract for 24 hours prior to treatment initiation. Cells were then treated for 2-4 hours (with exception of AREG neutralizing antibody which was maintained in the culture media), media was aspirated, the wells were washed with warm PBS and then replaced with fresh starvation media without inhibitor/activator/ligand present, and subsequently imaged. For experiments that required subsequent media changes (96 hour) cells fresh starvation media was changed 48 hours afterwards.
(§3) Live Cell Imaging and Dynamics Measurement: To assess cellular dynamics, time-lapse microscopy and subsequent analysis were completed. Two imaging schemes were utilized: (1) images were taken every 5 minutes for 200 minutes during HBEC differentiation; (2) images were taken every 20 minutes for 48, 96, or 144 hours after HBEC experimental intervention. Phase contrast images were acquired on a Keyence BZ-X810 with a stage incubator (37° C., 5% CO2). Dynamic analysis followed previously published workflows (10-12, 22). Briefly, using phase contrast images instantaneous velocities were mapped by particle image velocimetry utilizing open source PIVLab on MATLAB. Velocity fields were obtained with 2 passes (64×64 and 32×32 pixel size interrogation window with 50% overlap) with a pixel size of 0.75488 μm using a Fast Fourier Transformation method. Trajectories from the PIV were seeded onto a grid and obtained via forward-integration of subsequent fields. These values were then used to determine mean-squared-displacement (MSD) and self-overlap order parameter (Q): MSD(Δt)= ? ri(t+Δt)−ri(t)|2 ? and Q(Δt)=N−1ΣwiNi=1 as previously published. Instantaneous room mean squared velocity (VRMS) of the monolayer was obtained as previously published: VRMS(t)=√1MΣ ? |v(t)2 ? jMj=1
(§4) Cell Shape Analysis: Cell shape measurements were achieved via cell border delineation by F-actin immunofluorescence. Images were segmented utilizing SeedWater Segmenter. Similar to previously published workflows, we segmented images which were subsequently analyzed in ImageJ for the shape index (q=Perimeter√Area) and aspect ratio (major and minor axis) for all cells within a given field of view. For each experimental condition an n≥3 was used with at least 3 independent wells per donor per treatment condition. […]

Experiment [2] has as its system IPF HBECs. Nature of the experiment: YAP immunofluorescence in IPF HBECs. Conditions: IPF HBECs 48 hours after treatment. On the procedure: (§5) Immunofluorescence staining: Cells were fixed with 4% paraformaldehyde in PBS with calcium and magnesium for 30 minutes at room temperature. Cells were then washed with PBS and subsequently permeabilized (Triton™-X, at 0.1%) and blocked with 5% bovine serum albumin in PBS for 1 hour at room temperature. Cells were then incubated for >16 hours at 4 degrees with primary antibodies. Primary antibodies were aspirated, and cells were washed with PBS+0.1% Tween-20 at room temperature. Cells were then incubated for 1 hour at room temperature with secondary antibodies (1:500) and/or Phalloidin-iFluor™ 488 1:2000. Cells were stained with 4′,6-diamidino-2-phenylindole at 1:20000 (BioLegend®, San Diego, California, 422801). Subsequently, transwell membranes, or hydrogels, were removed from the well and mounted on glass slides with Fluoromount-G® (SouthernBiotech™, Birmingham, Alabama, 0100-01). Slides were then visualized using an Olympus BX63 microscope (Olympus, Tokyo, Japan).
(§6) Immunofluorescence and cell number quantification for HBEC experiments: For total fluorescence quantification (i.e., ERBB2), all images were processed in the same manner with the same microscopy settings. To determine mean fluorescence the channel of interest was separated in ImageJ, and the mean gray value was measured for the field of view and normalized by the total number of cells. Cell counting was achieved by taking 40×images and manually counting all nuclei in a field of view (approximately 200-300). The number of cells also expressing the marker of interested were then counted and normalized by the total number of cells per field. For each experiment a biological n≥3 was used with at least 5 fields of view per well and at least 2 wells being counted in total per donor.

In experiment [3] the test system is IPF HBECs. Nature of the experiment: Gene expression of ERBB receptors, YAP target genes and MUC5B in IPF HBECs. The note with it: IPF HBECs after inhibition. The procedure:
Quantitative RT-PCR Analysis: Total RNA was extracted using RNeasy® Mini kit (Qiagen, Hilden, Germany) and quantified by NanoDrop™ (ThermoFisher Scientific™, Waltham, Massachusetts).Reverse transcription was completed using the High Capacity cDNA Reverse Transcription Kit (Applied Biosystems™, Thermo Fisher Scientific™, Waltham, Massachusetts). Gene expression was analyzed by using TaqMan® Advanced Master Mix (Thermo Fisher Scientific™, Waltham, Massachusetts and TaqMan® assays. They were subsequently run in triplicate on the ViiA™ 7 Real-Time machine (Thermo Fisher Scientific™, Waltham, Massachusetts). Primer IDs were: β-ACTIN, Hs01060665_g1; MUC5B, Hs00861595_m1; MUC5AC, Hs01365616_m1; EGFR, Hs0176090_m1; ERBB2, Hs01001580_m1; ZEB1, Hs00232783_m1; SNAI1, Hs00195591_m1; VIM, Hs00185584_m1; CTGF, Hs00170014_m1; AREG, Hs00950669_m1; FN1, Hs01549976_m1; PDGFRA, Hs00998018_m1; PDGFA, Hs00234994_m1; PDGFRB, Hs01019589_m1; PDGFB, Hs00966522_m1; TGFBRI, Hs00610320_m1; TGFBI, Hs00998133_m1; COL1A1, Hs00164004_m1; ACTA2, Hs00426835; MMP3, Hs00968305_m1; MMP9, Hs00957562_m1; TIMP1, Hs01092512_g1; and TIMP2, Hs00234278_m1.

The next experiment relates to COPD HBECs. Nature of the experiment: Induction of jamming in COPD HBECs.
Excerpt: as §1
as §2, with “afterwards. […]” for “afterwards.”

Experiment [4] has as its system control HBECs. Nature of the experiment: Induced unjamming of control HBECs at air-liquid interface (live cell imaging, cell shape). Conditions: for ability to induce an unjammed state in control epithelia: control HBECs at ALI day 14.
Excerpt: as §1, §2, §3, §4

For experiment [5], the system named is control HBECs. Nature of the experiment: Immunofluorescence of Ki67 and YAP in control HBECs. The procedure:
as §5, §6

Where [6] appears, read: control HBECs, 48 hours after treatment.

Take `NCC(=O)Nc1ccc(-n2nc(C(F)(F)F)cc2-c2ccc3c(ccc4ccccc43)c2)cc1` [OSU03012, OSU-03012]: the “induction of the UJT (jamming) in IPF epithelia” value (“induction of the UJT (jamming)” below) in the experiment on IPF HBECs [1] was “induces jamming in IPF epithelia”. Besides, the YAP nuclear exclusion entry in the experiment with IPF HBECs [2] is given as “results in YAP nuclear exclusion”. In addition, the “transcription of ERBB receptors, YAP target genes and MUC5B” value (from here on “transcription of ERBB receptors”) with IPF HBECs [3] is recorded as “decreases 738 ERBB-YAP target gene expression”. In addition, in the experiment with COPD HBECs, the “induction of jamming in COPD epithelia” value is “not responsive to ERBB-YAP inhibition”.

Take `CN1C(=O)c2sccc2N(C)c2nc(Nc3ccc(S(N)(=O)=O)cc3)ncc21` [XMU-MP-1]: in the experiment on control HBECs [4], the “ability to induce an unjammed state in control epithelia” value (from here on “ability to induce an unjammed state”) is “had the ability to elicit an unjammed state”. Besides, in the experiment on control HBECs [4] (control HBECs treated at ALI day 28), the “induction of unjammed state in mature monolayer” value is listed as “unjammed state was induced regardless of monolayer maturity”. Further, the “time at which migratory capacity of control epithelia begins to diminish” value in the experiment with control HBECs [4] (treatment at day 14 of ALI) was approximately 36 h. In the experiment on control HBECs [5] (control HBECs after treatment), the “cell type showing YAP nuclear localization” value is “predominantly in multi-ciliated cells (FOXJ1+)”. For the same compound, in the experiment on control HBECs [5] (setting [6]), the YAP nuclear localization result was “did lead to YAP nuclear localization” and the “proliferation (Ki67+)” value is “neither AREG nor XMU treatment resulted in increased proliferation”.

Turning to `CN1CCN(c2nc(C3=C(c4c[nH]c5ccccc45)C(=O)NC3=O)c3ccccc3n2)CC1` [Sotrastaurin], the “induction of the UJT (jamming)” value with IPF HBECs [1] is listed as “did not induce the UJT”.

`NC1(c2ccc(-c3nc4ccn5c(=O)[nH]nc5c4cc3-c3ccccc3)cc2)CCC1` [MK-2206]: the “induction of the UJT (jamming)” value with IPF HBECs [1] is “did not induce the UJT”.

As for “TGFα: High-affinity EGFR ligand, EGFR agonist (R&D Systems 239-A-100)”, the “ability to induce an unjammed state” value with control HBECs [4] was “only AREG treatment had the ability to induce an unjammed state”.

As for `CNc1nc(-c2ccc3c(N)n[nH]c3c2)cc(N2C[C@@H](C(=O)NC3CCCCC3)CC[C@H]2C)n1` [GSK2334470], the “induction of the UJT (jamming)” value in the experiment on IPF HBECs [1] was “induces jamming in IPF epithelia”. Moreover, the YAP nuclear exclusion result with IPF HBECs [2] is “results in YAP nuclear exclusion”.

Take `FC(F)(F)c1ccc(/C=C/c2nc(COc3ccc(CCCCn4ccnn4)cc3)co2)cc1` [Mubritinib]: the “induction of the UJT (jamming)” value in the experiment on IPF HBECs [1] was “induces jamming in IPF epithelia”. Besides, in the experiment with IPF HBECs [2], the YAP nuclear exclusion result is reported as “results in YAP nuclear exclusion”. For the same compound, the “transcription of ERBB receptors” value in the experiment on IPF HBECs [3] is “decreases 738 ERBB-YAP target gene expression”.

Turning to `C#Cc1cccc(Nc2ncnc3cc(OCCOC)c(OCCOC)cc23)c1` [Erlotinib], the “induction of the UJT (jamming)” value in the experiment with IPF HBECs [1] is listed as “induces jamming in IPF epithelia”. For the same compound, the YAP nuclear exclusion result in the experiment with IPF HBECs [2] is given as “results in YAP nuclear exclusion”. Also, the “transcription of ERBB receptors” value in the experiment on IPF HBECs [3] is “decreases 738 ERBB-YAP target gene expression”.

On to `COc1cc2ncnc(Nc3cccc(Cl)c3)c2cc1OC` [AG1478, Tyrphostin AG-1478], for which the “induction of the UJT (jamming)” value in the experiment with IPF HBECs [1] is “halted migration and induced a cobblestone appearance in the epithelia”. The YAP nuclear exclusion entry in the experiment on IPF HBECs [2] is on record as “results in YAP nuclear exclusion”. Besides, the “transcription of ERBB receptors” value with IPF HBECs [3] was “reduced the transcription of ERBB receptors, YAP target genes, and MUC5B nearly back to control levels”. Further, the “induction of jamming in COPD epithelia” value in the experiment with COPD HBECs is listed as “not responsive to ERBB-YAP inhibition”.

For the compound “EGF: High-affinity EGFR ligand, EGFR agonist (R&D Systems 263-EG) (NSDSECPLSHDGYCLHDGVCMYIEALDKYACNCVVGYIGERCQYRDLKWWELR; Epidermal growth factor; UniProt P01133 971-1023, looked up)”, the “ability to induce an unjammed state” value with control HBECs [4] is “only AREG treatment had the ability to induce an unjammed state”.

On to `CS(=O)(=O)CCNCc1ccc(-c2ccc3ncnc(Nc4ccc(OCc5cccc(F)c5)c(Cl)c4)c3c2)o1` [Lapatinib], for which the “induction of the UJT (jamming)” value in the experiment with IPF HBECs [1] was “induces jamming in IPF epithelia”. Moreover, the YAP nuclear exclusion result with IPF HBECs [2] was “results in YAP nuclear exclusion”. The “transcription of ERBB receptors” value with IPF HBECs [3] is given as “decreases 738 ERBB-YAP target gene expression”.
